Source: patent US20260007733A1, “Specific Saccharide Fragment for Development of Vibrio Cholerae Vaccines” (priority 2024, published 2026)

Test system: IgG antibodies in anti-sera immunized with the lipopolysaccharide of the V. cholerae O100 serotype
Assay: Glycan microarray screening of saccharide fragments with rabbit anti-sera
Type: binding
Conditions: rabbit sera diluted 1:200; goat anti-rabbit IgG secondary antibodies 1:400; FIG. 9
Description: Step 1: The obtained sugar fragment is dissolved in a 50 mM phosphate solution (pH=8.5), printed onto the microarray using a microarray spotter, and incubated at room temperature and 65% humidity overnight to covalently bind the saccharide fragment to the microarray; and after incubation, the microarray is quenched by treatment with a mixed solution of […] solution (pH=9) at 50° C. for 1 h.
Step 2: The glycan microarray is probed with diluted rabbit anti-sera and co-incubated to specifically bind IgG antibodies in the anti-sera to the saccharide fragment, and unbound serum antibodies are washed away; and subsequently, fluorescently labeled secondary antibodies (anti-IgG antibodies) are used to bind the IgG antibodies on the microarray and incubated, and unbound secondary antibodies are washed away.
Synthetic oligosaccharides and LPS were dissolved in a coupling buffer (50 mM sodium phosphate, pH=8.5) for printing onto a “CodeLink” slide (SurModics Co., Ltd.) using an RMA-Arrayer 96 (Rayme China). Then the slide was incubated overnight in a humidifying chamber at 26° C. and 55% humidity. The slide and the microarray were incubated in a quenching buffer ([…] ethanolamine) at 50° C. for 1 h. […]

With `CC(=O)NC1C(O)[C@H](NC(C)=O)C(C)O[C@H]1OCN` (stereo partly shown) [Compound 10] the “antigenicity / recognition by the antibodies (glycan microarray, fluorescence)” value was “cannot be recognized by the antibodies”.
